Laboratory results: US7598223B2, “Methods for producing target cell reactive lymphocytes” (The Board of Trustees of the Leland Stanford Junior …, priority 2004, dated 2009)
Each block holds one substance with its values, some of them ahead of it.

How the values were obtained:
[1] = tested on: T2 cells; assay: Determination of recognition efficiency (RE): 51Cr-release lysis of peptide-pulsed T2 targets by CTL clones; type: cell-based, human; conditions: for RE score (negative log10 of the peptide concentration required for 40% specific lysis): peptide-pulsed T2 cells, E:T ratio 10:1; for Mean RE (weighted): target cells pulsed with native peptide
Description: FIGS. 3A-3J. […] All assays were performed in triplicate and each clone was assayed twice. Error bars reflect variation between two separate assays. 3a.-c. CTL clones 476.105 and 132.1 were assayed for lysis of T2 cells pulsed with 10-fold dilutions of a. native or c. heteroclitc peptide at concentrations ranging from 100 fg/ml to 100 ng/ml. b. CTL clones 476.105 and 132.1 were assayed for lysis of Malme-3M melanoma cells. d.-e. […] Endogenous (461 and 132) and vaccine-induced (517, 520, 422 and 476) CTL clones were compared for RE in lysing target cells. f-g. […] Mean RE (weighted) for each response is indicated with horizontal bars. Weighted means were based on all clones, not only those assayed, and were estimated by summing the RE of each analyzed clone multiplied by the number of total clones expressing the same V-beta in each patient.
2. […] The E:T ratio was based upon live T and target cells. For each T cell clone, % cytotoxicity was plotted against peptide concentration. The peptide concentration at which the curve crosses 40% cytotoxicity was defined as the RE of that clone (Marguiles, Nat. Immunol. (2001) 2:669-670.
Similar RE assays were performed for the remaining clones from each patient selected for analysis. In order to compare REs of various CTL lines, each clone was assigned an RE score expressed as the negative log10 value of the peptide concentration required for 40% percent specific lysis at an E:T ratio of 10:1. […] We estimated the composite RE of the overall TAA-specific response (composed of a heterogeneous population of T cells) in vivo by summing the RE of each clone multiplied by its representation in the original mixture (the representation was estimated based on the proportion of TAA-specific cells expressing the same V-beta as the clone).

[2] = tested on: T2 cells; assay: Micro-cytotoxicity 51Cr-release assay with tetramer+/CD8+ cells sorted from PBMC of patient 422; type: cell-based, human; conditions: patient 422 G209-2M tetramer+ cells; peptide 1 μg/ml; 4 hours
Description: Six patients with T cell responses specific for MART-1 or gp100 were selected for analysis. PBMC from each patient were stained with PE-conjugated peptide-MHC tetramers: G209-2M-tet PE or M26-tet PE, and co-stained with anti-CD8 FITC and anti-CD14, -CD19, and -CD4 Cy5PE. The plots shown are gated for CD14-, CD19-, and CD4-cells. Tetramer+/CD8+ cells are boxed. […] Micro-cytotoxicity ^51Cr-release assay with tetramer+/CD8+ cells isolated by FACS from the PBMC from patient 422. Isolated cells were assayed for lysis of T2 cells treated with relevant (G209-2M, G209n) or irrelevant (CMV) peptide, or mel 526 melanoma cells. Sorted cells were combined with 250 target cells at 13:1 E:T ratios for 4 hours and supernatants were assayed for percent specific release of radio-label.
Microcytotoxic assay: Cells were isolated directly from PBMC from patient 422 by FACS as described above. Cells were collected in microfuge tubes containing 1 ml ice cold 90% IMDM, with 10% FBS. Collected cells were washed and resuspended to 83,300 cells/ml in 90% IMDM, with 10% FBS. Targets were prepared as described above and resuspended to 8,300 cells/ml in 90% IMDM, with 10% FBS. […] Percent specific release of ^51Cr was calculated from 40 μl cell-free supernatant.

[3] = target: tetramer+ CD8+ T cells of patient 461 (their T cell receptors); assay: flow cytometry, tetramer staining of patient PBMC
[4] = target: tetramer+ CD8+ T cells of patient 517 (their T cell receptors); assay: flow cytometry, tetramer staining of patient PBMC
[5] = target: tetramer+ CD8+ T cells of patient 422 (their T cell receptors); assay: flow cytometry, tetramer staining of patient PBMC
[6] = target: tetramer+ CD8+ T cells of patient 132 (their T cell receptors); assay: flow cytometry, tetramer staining of patient PBMC
[7] = target: tetramer+ CD8+ T cells of patient 476 (their T cell receptors); assay: flow cytometry, tetramer staining of patient PBMC

Substance: ITDQVPSFV (SEQ ID NO:1) (syArtificial Sequence) [G209n, native G209n peptide; agonist]
RE score (negative log10 of the peptide concentration required for 40% specific lysis) ([1]; CTL clone 132.1): 11.1 | RE score (negative log10 of the peptide concentration required for 40% specific lysis) ([1]; CTL clone 476.105): 8.3 | Mean RE (weighted) ([1]; CTL clones of patient 132 (endogenous)): 11.2 | Mean RE (weighted) ([1]; CTL clones of patient 422 (vaccine-induced)): 9.7 | Mean RE (weighted) ([1]; CTL clones of patient 476 (vaccine-induced)): 9.9 | Lysis of peptide-pulsed T2 cells by directly isolated tetramer+ T cells [2]: specifically lysed

estimated percentage of total CD8+ cells that are also tetramer+/CD8+ [3]: 0.5% | estimated percentage of total CD8+ cells that are also tetramer+/CD8+ [4]: 0.23%
Substance: HLA-A*0201/M26 peptide tetramer-phycoerythrin (from UniProt P61769 21-119) (peptide-MHC)

estimated percentage of total CD8+ cells that are also tetramer+/CD8+ [5]: 2.5% | estimated percentage of total CD8+ cells that are also tetramer+/CD8+ [6]: 0.22% | estimated percentage of total CD8+ cells that are also tetramer+/CD8+ [7]: 0.31%
Substance: HLA-A*0201/G209-2M peptide tetramer-phycoerythrin (from UniProt P61769 21-119) (peptide-MHC)

Substance: IMDQVPSFV (SEQ ID NO:4) [G209-2M, heteroclitic peptide vaccine gp100 209-217 (210M), reference compound]
RE score (negative log10 of the peptide concentration required for 40% specific lysis) ([1]; CTL clone 132.1): 11.2 | RE score (negative log10 of the peptide concentration required for 40% specific lysis) ([1]; CTL clone 476.105): 11.2 | Lysis of peptide-pulsed T2 cells by directly isolated tetramer+ T cells [2]: specifically lysed

Substance: ITAQVPSFV (SEQ ID NO:2) [G209-3A]
Activation of G209-specific target cell lysis by T cell clones ([1]; any concentrations, data not shown): does not activate
